Reference: the supplement of paper PMC10307832

Tests used:
Assay in all cases: relative viability (nuclei count vs DMSO), 5 days (fraction); higher = more cells survive
[1] = compound: C(C(=O)C(=O)O)Br [Bromopyruvate] + CS(=O)(=O)CCNCc1ccc(-c2ccc3ncnc(Nc4ccc(OCc5cccc(F)c5)c(Cl)c4)c3c2)o1 [Lapatinib] (partner 2 µM)
Procedure, shortened: (§1)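 Lung cancer cell lines in 1536-well plates got either a single drug or a fixed anchor-drug dose together with five library-drug doses (not always all listed) in √10 steps, by pin tool, on the day after seeding. Nuclei were counted after 5 days, and relative viability is the treated-to-vehicle ratio of nuclei counts. Values are medians of duplicate plates.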

[2] = compound: C(C(=O)C(=O)O)Br [Bromopyruvate] + O=C(c1cc(Cc2n[nH]c(=O)c3ccccc23)ccc1F)N1CCN(C(=O)C2CC2)CC1 [Olaparib] (partner 8 µM)
Procedure, shortened: as §1

[3] = compound: CC(O)(CS(=O)(=O)c1ccc(F)cc1)C(=O)Nc1ccc(C#N)c(C(F)(F)F)c1 [Bicalutamide] + Cc1cc(Nc2cc(N3CCN(C)CC3)nc(Sc3ccc(NC(=O)C4CC4)cc3)n2)n[nH]1 [Tozasertib] (partner 0.1 µM)
Procedure, shortened: as §1

[4] = compound: CC(O)(CS(=O)(=O)c1ccc(F)cc1)C(=O)Nc1ccc(C#N)c(C(F)(F)F)c1 [Bicalutamide] + Nc1ncn([C@H]2C[C@H](O)[C@@H](CO)O2)c(=O)n1 [Decitabine] (partner 2 µM)
Procedure, shortened: as §1

Cell Line | relative viability ([1]; first compound 1 µM) | relative viability ([1]; first compound 3.162 µM) | relative viability ([1]; first compound 10 µM) | relative viability ([1]; first compound 31.62 µM) | relative viability ([1]; first compound 100 µM) | relative viability ([2]; first compound 1 µM) | relative viability ([2]; first compound 3.162 µM) | relative viability ([2]; first compound 10 µM) | relative viability ([2]; first compound 31.62 µM) | relative viability ([2]; first compound 100 µM) | relative viability ([3]; first compound 0.08 µM) | relative viability ([3]; first compound 0.253 µM) | relative viability ([3]; first compound 0.8 µM) | relative viability ([3]; first compound 2.53 µM) | relative viability ([4]; first compound 0.08 µM) | relative viability ([4]; first compound 0.253 µM) | relative viability ([4]; first compound 0.8 µM) | relative viability ([4]; first compound 2.53 µM)
NCI-H358 | 0.435 | 0.449 | 0.482 | 0.483 | 0.451 | 0.591 | 0.687 | 0.628 | 0.565 | 0.535 | 0.136 | 0.108 | 0.108 | 0.105 | 0.224 | 0.224 | 0.193 | 0.204
NCI-H460 | 0.967 | 0.881 | 1.8 | 1.01 | 0.967 | 0.457 | 0.404 | 0.469 | 0.397 | 0.462 | 0.521 | 0.39 | 0.434 | 0.52 | 0.55 | 0.468 | 0.598 | 0.484
NCI-H520 | 0.846 | 0.966 | 0.98 | 0.766 | 0.739 | 0.37 | 0.32 | 0.367 | 0.302 | 0.264 | 0.433 | 0.414 | 0.539 | 0.458 | 0.576 | 0.52 | 0.646 | 0.51
NCI-H596 | 1.11 | 1.08 | 1.15 | 1.01 | 1.16 | 0.755 | 0.645 | 0.671 | 0.754 | 0.782 | 0.897 | 0.82 | 0.998 | 0.989 | 0.975 | 1.02 | 1.09 | 0.983
NCI-H647 | 1.02 | 0.972 | 1.19 | 1.15 | 0.916 | 0.567 | 0.541 | 0.494 | 0.585 | 0.532 | 0.3 | 0.264 | 0.293 | 0.191 | 0.601 | 0.328 | 0.34 | 0.338
NCI-H650 | 1.12 | 1.16 | 0.966 | 0.885 | 0.769 | 0.324 | 0.378 | 0.379 | 0.278 | 0.206 | 0.792 | 0.747 | 0.885 | 0.653 | 0.318 | 0.308 | 0.333 | 0.335
NCI-H661 | 0.52 | 0.475 | 0.623 | 0.526 | 0.559 | 0.734 | 0.7 | 0.799 | 0.731 | 0.65 | 0.367 | 0.355 | 0.362 | 0.359 | 0.546 | 0.51 | 0.557 | 0.549
NCI-H727 | 1.13 | 0.928 | 0.862 | 0.781 | 0.86 | 0.666 | 0.707 | 0.764 | 0.79 | 0.634 | 0.615 | 0.619 | 0.591 | 0.603 | 0.994 | 0.847 | 0.896 | 0.991
NCI-H838 | 1.05 | 0.962 | 1.01 | 1.01 | 0.936 | 0.758 | 0.757 | 0.86 | 0.781 | 0.686 | 0.274 | 0.279 | 0.289 | 0.23 | 0.484 | 0.461 | 0.508 | 0.371
NCI-H1355 | 0.978 | 0.986 | 1.06 | 0.995 | 0.965 | 0.738 | 0.762 | 0.681 | 0.764 | 0.776 | 0.613 | 0.499 | 0.658 | 0.462 | 0.367 | 0.348 | 0.395 | 0.376
NCI-H1395 | 1.07 | 0.928 | 1.07 | 0.919 | 0.976 | 0.447 | 0.452 | 0.476 | 0.52 | 0.443 | 0.829 | 0.736 | 0.827 | 0.696 | 0.754 | 0.672 | 0.787 | 0.806
NCI-H1437 | 0.845 | 0.768 | 1.1 | 0.801 | 0.804 | 0.647 | 0.664 | 0.656 | 0.62 | 0.627 | 0.399 | 0.423 | 0.448 | 0.403 | 0.554 | 0.501 | 0.599 | 0.616
NCI-H1650 | 0.765 | 0.69 | 0.75 | 0.81 | 0.815 | 0.82 | 0.734 | 0.723 | 0.71 | 0.567 | 0.501 | 0.395 | 0.341 | 0.388 | 0.452 | 0.369 | 0.45 | 0.436
NCI-H1651 | 0.858 | 0.909 | 0.905 | 0.764 | 0.829 | 0.188 | 0.182 | 0.187 | 0.207 | 0.167 | 0.761 | 0.658 | 0.66 | 0.632 | 0.6 | 0.618 | 0.779 | 0.655
NCI-H1666 | 0.823 | 0.666 | 0.677 | 0.701 | 0.557 | 0.685 | 0.733 | 0.73 | 0.707 | 0.716 | 0.6 | 0.562 | 0.625 | 0.597 | 0.724 | 0.706 | 0.767 | 0.723
NCI-H1734 | 1.08 | 0.944 | 1.26 | 1.08 | 1.12 | 0.68 | 0.585 | 0.729 | 0.616 | 0.429 | 0.249 | 0.244 | 0.268 | 0.279 | 0.542 | 0.453 | 0.515 | 0.558
NCI-H1755 | 0.988 | 1.02 | 1.02 | 1.07 | 1.19 | 0.935 | 0.865 | 0.854 | 0.924 | 0.936 | 0.458 | 0.625 | 0.576 | 0.599 | 0.737 | 0.636 | 0.721 | 0.741
NCI-H1793 | 0.593 | 1.11 | 0.674 | 0.842 | 0.59 | 0.841 | 0.95 | 0.925 | 0.921 | 0.89 | 0.36 | 0.257 | 0.313 | 0.309 | 0.524 | – | 0.574 | 0.423
